Reference: PubChem BioAssay AID1963962 (Molecular Pharmacology Branch, DTP, NCI, 2024)
pIC50: −log10 of the molar value.

System: 967376-340-R-J2-PDC multicell spheroid viability
Experiment: Anticancer human tumor 967376-340-R-J2-PDC patient-derived colon adenocarcinoma cell line growth inhibition [PI3K]
Conditions: for pIC50: curve of first compound; for viability, T/C: stronger effect = lower value
Method in brief: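 Tumor cells were combined with HUVEC and MSCs into spheroids, then dosed with PI3K-inhibitor combinations over half-log ranges capped near clinical Cmax or 10 microM.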

[1] = second compound 0.0316 µM, first compound 0.000316 µM
[2] = second compound 0.0316 µM, first compound 0.001 µM
[3] = second compound 0.0316 µM, first compound 0.00316 µM
[4] = second compound 0.0316 µM, first compound 0.01 µM
[5] = second compound 0.0316 µM, first compound 0.0316 µM
[6] = second compound 0.0316 µM, first compound 0.1 µM
[7] = second compound 0.1 µM, first compound 0.000316 µM
[8] = second compound 0.1 µM, first compound 0.001 µM
[9] = second compound 0.1 µM, first compound 0.00316 µM
[10] = second compound 0.1 µM, first compound 0.01 µM
[11] = second compound 0.1 µM, first compound 0.0316 µM
[12] = second compound 0.1 µM, first compound 0.1 µM
[13] = second compound 0.316 µM, first compound 0.000316 µM
[14] = second compound 0.316 µM, first compound 0.001 µM
[15] = second compound 0.316 µM, first compound 0.00316 µM
[16] = second compound 0.316 µM, first compound 0.01 µM
[17] = second compound 0.316 µM, first compound 0.0316 µM
[18] = second compound 0.316 µM, first compound 0.1 µM
[19] = second compound 1 µM, first compound 0.000316 µM
[20] = second compound 1 µM, first compound 0.001 µM
[21] = second compound 1 µM, first compound 0.00316 µM
[22] = second compound 1 µM, first compound 0.01 µM
[23] = second compound 1 µM, first compound 0.0316 µM
[24] = second compound 1 µM, first compound 0.1 µM
[25] = second compound 3.16 µM, first compound 0.000316 µM
[26] = second compound 3.16 µM, first compound 0.001 µM
[27] = second compound 3.16 µM, first compound 0.00316 µM
[28] = second compound 3.16 µM, first compound 0.01 µM
[29] = second compound 3.16 µM, first compound 0.0316 µM
[30] = second compound 3.16 µM, first compound 0.1 µM
[31] = second compound 10 µM, first compound 0.000316 µM
[32] = second compound 10 µM, first compound 0.001 µM
[33] = second compound 10 µM, first compound 0.00316 µM
[34] = second compound 10 µM, first compound 0.01 µM
[35] = second compound 10 µM, first compound 0.0316 µM
[36] = second compound 10 µM, first compound 0.1 µM
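Also: spheroids exposed to agents for 7 days before read-out.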
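For viability, T/C in this document: luminescence used as surrogate of cell viability.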

In the case of `CC(=O)c1c(C)c2cnc(Nc3ccc(N4CCNCC4)cn3)nc2n(C2CCCC2)c1=O` + Cc1nc(NC(=O)N2CCCC2C(N)=O)sc1-c1ccnc(C(C)(C)C(F)(F)F)c1, the pIC50 (second compound 0.0316 µM) was < 7.00, the pIC50 (second compound 0.1 µM) was < 7.00 and the pIC50 (second compound 0.316 µM) was < 7.00. For the same compound, the pIC50 (second compound 1 µM) was < 7.00, the pIC50 (second compound 3.16 µM) was < 7.00 and the pIC50 (second compound 10 µM) was 7.61. The viability, T/C [1] was 98.9%, the viability, T/C [2] was 84.7% and the viability, T/C [3] was 101%. For the same compound, the viability, T/C [4] was 90.7%, the viability, T/C [5] was 102% and the viability, T/C [6] was 77.3%. For the same compound, the viability, T/C [7] was 105%, the viability, T/C [8] was 94.3% and the viability, T/C [9] was 88.3%. The viability, T/C [10] was 99.4%, the viability, T/C [11] was 109% and the viability, T/C [12] was 75.6%. It also gave a viability, T/C [13] of 89%, a viability, T/C [14] of 82.1% and a viability, T/C [15] of 75%. The viability, T/C [16] was 82.6%, the viability, T/C [17] was 84.2% and the viability, T/C [18] was 101%. It also gave a viability, T/C [19] of 65%, a viability, T/C [20] of 74.4% and a viability, T/C [21] of 88.7%. For the same compound, the viability, T/C [22] was 79.1%, the viability, T/C [23] was 75.5% and the viability, T/C [24] was 76.3%. It also gave a viability, T/C [25] of 59.4%, a viability, T/C [26] of 68.2% and a viability, T/C [27] of 74.5%. For the same compound, the viability, T/C [28] was 57.8%, the viability, T/C [29] was 63.8% and the viability, T/C [30] was 60.4%. For the same compound, the viability, T/C [31] was 62.2%, the viability, T/C [32] was 50.8% and the viability, T/C [33] was 57.2%. For the same compound, the viability, T/C [34] was 55.9%, the viability, T/C [35] was 46.3% and the viability, T/C [36] was 47.1%.
With `CC(C)n1nc(-c2ccc3oc(N)nc3c2)c2c(N)ncnc21` + Cc1nc(NC(=O)N2CCCC2C(N)=O)sc1-c1ccnc(C(C)(C)C(F)(F)F)c1 the pIC50 (second compound 0.0316 µM) was < 7.00, the pIC50 (second compound 0.1 µM) was 7.04 and the pIC50 (second compound 0.316 µM) was 7.15. The pIC50 (second compound 1 µM) was 7.26, the pIC50 (second compound 3.16 µM) was 7.66 and the pIC50 (second compound 10 µM) was 8.23. For the same compound, the viability, T/C [1] was 90.8%, the viability, T/C [2] was 108% and the viability, T/C [3] was 96.5%. The viability, T/C [4] was 109%, the viability, T/C [5] was 70.5% and the viability, T/C [6] was 53.4%. It also gave a viability, T/C [7] of 84.1%, a viability, T/C [8] of 69.3% and a viability, T/C [9] of 88.7%. The viability, T/C [10] was 73%, the viability, T/C [11] was 70.8% and the viability, T/C [12] was 48.2%. The viability, T/C [13] was 67.5%, the viability, T/C [14] was 79.3% and the viability, T/C [15] was 80.4%. For the same compound, the viability, T/C [16] was 72.3%, the viability, T/C [17] was 58.7% and the viability, T/C [18] was 46.2%. The viability, T/C [19] was 65.4%, the viability, T/C [20] was 64.5% and the viability, T/C [21] was 59.3%. It also gave a viability, T/C [22] of 59.7%, a viability, T/C [23] of 66% and a viability, T/C [24] of 36.2%. For the same compound, the viability, T/C [25] was 54.6%, the viability, T/C [26] was 58.2% and the viability, T/C [27] was 62.3%. For the same compound, the viability, T/C [28] was 53.7%, the viability, T/C [29] was 46.7% and the viability, T/C [30] was 32.2%. It also gave a viability, T/C [31] of 47.8%, a viability, T/C [32] of 54.2% and a viability, T/C [33] of 51.6%. For the same compound, the viability, T/C [34] was 48.9%, the viability, T/C [35] was 41.3% and the viability, T/C [36] was 34.5%.
`CCCS(=O)(=O)Nc1ccc(F)c(C(=O)c2c[nH]c3ncc(-c4ccc(Cl)cc4)cc23)c1F` + Cc1nc(NC(=O)N2CCCC2C(N)=O)sc1-c1ccnc(C(C)(C)C(F)(F)F)c1 was tested, and the pIC50 (second compound 0.0316 µM) was 5.16, the pIC50 (second compound 0.1 µM) was < 5.00 and the pIC50 (second compound 0.316 µM) was 5.08. The pIC50 (second compound 1 µM) was 5.22, the pIC50 (second compound 3.16 µM) was < 5.00 and the pIC50 (second compound 10 µM) was 5.35. The viability, T/C [5] was 80.2%, the viability, T/C [6] was 82% and the viability, T/C (second compound 0.0316 µM, first compound 0.316 µM) was 101%. It also gave a viability, T/C (second compound 0.0316 µM, first compound 1 µM) of 102%, a viability, T/C (second compound 0.0316 µM, first compound 3.16 µM) of 105% and a viability, T/C (second compound 0.0316 µM, first compound 10 µM) of 29.8%. For the same compound, the viability, T/C [11] was 95.7%, the viability, T/C [12] was 72% and the viability, T/C (second compound 0.1 µM, first compound 0.316 µM) was 77.2%. It also gave a viability, T/C (second compound 0.1 µM, first compound 1 µM) of 80%, a viability, T/C (second compound 0.1 µM, first compound 3.16 µM) of 117% and a viability, T/C (second compound 0.1 µM, first compound 10 µM) of 60.3%. The viability, T/C [17] was 63%, the viability, T/C [18] was 81.2% and the viability, T/C (second compound 0.316 µM, first compound 0.316 µM) was 68.7%. The viability, T/C (second compound 0.316 µM, first compound 1 µM) was 91.7%, the viability, T/C (second compound 0.316 µM, first compound 3.16 µM) was 88.4% and the viability, T/C (second compound 0.316 µM, first compound 10 µM) was 44.3%. For the same compound, the viability, T/C [23] was 78.2%, the viability, T/C [24] was 69.1% and the viability, T/C (second compound 1 µM, first compound 0.316 µM) was 74%. For the same compound, the viability, T/C (second compound 1 µM, first compound 1 µM) was 74.8%, the viability, T/C (second compound 1 µM, first compound 3.16 µM) was 66.3% and the viability, T/C (second compound 1 µM, first compound 10 µM) was 36.6%. It also gave a viability, T/C [29] of 50.5%, a viability, T/C [30] of 56.5% and a viability, T/C (second compound 3.16 µM, first compound 0.316 µM) of 60.3%. For the same compound, the viability, T/C (second compound 3.16 µM, first compound 1 µM) was 65.6%, the viability, T/C (second compound 3.16 µM, first compound 3.16 µM) was 71.4% and the viability, T/C (second compound 3.16 µM, first compound 10 µM) was 61.4%. The viability, T/C [35] was 59.7%, the viability, T/C [36] was 46.9% and the viability, T/C (second compound 10 µM, first compound 0.316 µM) was 69.2%. For the same compound, the viability, T/C (second compound 10 µM, first compound 1 µM) was 49.6%, the viability, T/C (second compound 10 µM, first compound 3.16 µM) was 65.1% and the viability, T/C (second compound 10 µM, first compound 10 µM) was 31.1%.
